Assay results from patent US20260345803A1, “An Integrin Alpha10 Antibody Drug Conjugate” (Targinta AB, priority 2022, published 2026).
Values belong to the molecule of their own block, whether it stands above or below them.

How the values were obtained:
[1] = tested on: C2C12alpha10; assay: In vitro cytotoxicity (WST-1), C2C12alpha10; format: cell-based, mouse; details: monolayer, 5 days
Description: (§1) • Aim: To evaluate the in vitro efficacy of Th-Ab12-ADC in different cell lines. Material and Methods: Cells were seeded either as monolayer (C2C12alpha10, C2C12alpha11 and A204) or as spheres (BT549, Hs578T, U3046MG, U3054MG and SJSA-1) and treated with the IgG1 isotype control Ctrl-ADC or Th-Ab12-ADC at different concentrations ([…]) for 5 days (C2C12alpha10, C2C12alpha11, A204 and SJSA-1) or 10 days (BT549, Hs578T, U3046MG and U3054MG). On the day of termination, the cells were incubated for 3-4 hours with WST-1, which measures the viable cells, and the plates were read at OD450 nm wavelength via SpectraMax. The dose response curves and IC50 values were generated in GraphPad Prism 9. The WST-1 assay is based on the cleavage of tetrazolium salt WST-1 for formazan by cellular mitochondrial dehydrogenases. […] The differences in IC50 values between control ADC and Th-Ab12-ADC supports a relatively large therapeutic window for each cell line (Table 3).

[2] = tested on: C2C12alpha11; assay: In vitro cytotoxicity (WST-1), C2C12alpha11; format: cell-based, mouse; details: monolayer, 5 days
Description: as §1

[3] = tested on: BT549; assay: In vitro cytotoxicity (WST-1), BT549; format: cell-based; details: spheres, 10 days
Description: as §1

[4] = tested on: Hs578T; assay: In vitro cytotoxicity (WST-1), Hs578T; format: cell-based; details: spheres, 10 days
Description: as §1

[5] = tested on: U3046MG; assay: In vitro cytotoxicity (WST-1), U3046MG; format: cell-based, human; details: spheres, 10 days
Description: as §1

[6] = tested on: U3054MG; assay: In vitro cytotoxicity (WST-1), U3054MG; format: cell-based, human; details: spheres, 10 days
Description: as §1

[7] = tested on: A204; assay: In vitro cytotoxicity (WST-1), A204; format: cell-based; details: monolayer, 5 days
Description: as §1

[8] = tested on: SJSA-1; assay: In vitro cytotoxicity (WST-1), SJSA-1; format: cell-based; details: spheres, 5 days
Description: as §1

[9] = target: T1, integrin alpha11 (C2C12alpha11 cells) (human, UniProt Q9UKX5); assay: FACS, C2C12alpha11 cells
T1 chain: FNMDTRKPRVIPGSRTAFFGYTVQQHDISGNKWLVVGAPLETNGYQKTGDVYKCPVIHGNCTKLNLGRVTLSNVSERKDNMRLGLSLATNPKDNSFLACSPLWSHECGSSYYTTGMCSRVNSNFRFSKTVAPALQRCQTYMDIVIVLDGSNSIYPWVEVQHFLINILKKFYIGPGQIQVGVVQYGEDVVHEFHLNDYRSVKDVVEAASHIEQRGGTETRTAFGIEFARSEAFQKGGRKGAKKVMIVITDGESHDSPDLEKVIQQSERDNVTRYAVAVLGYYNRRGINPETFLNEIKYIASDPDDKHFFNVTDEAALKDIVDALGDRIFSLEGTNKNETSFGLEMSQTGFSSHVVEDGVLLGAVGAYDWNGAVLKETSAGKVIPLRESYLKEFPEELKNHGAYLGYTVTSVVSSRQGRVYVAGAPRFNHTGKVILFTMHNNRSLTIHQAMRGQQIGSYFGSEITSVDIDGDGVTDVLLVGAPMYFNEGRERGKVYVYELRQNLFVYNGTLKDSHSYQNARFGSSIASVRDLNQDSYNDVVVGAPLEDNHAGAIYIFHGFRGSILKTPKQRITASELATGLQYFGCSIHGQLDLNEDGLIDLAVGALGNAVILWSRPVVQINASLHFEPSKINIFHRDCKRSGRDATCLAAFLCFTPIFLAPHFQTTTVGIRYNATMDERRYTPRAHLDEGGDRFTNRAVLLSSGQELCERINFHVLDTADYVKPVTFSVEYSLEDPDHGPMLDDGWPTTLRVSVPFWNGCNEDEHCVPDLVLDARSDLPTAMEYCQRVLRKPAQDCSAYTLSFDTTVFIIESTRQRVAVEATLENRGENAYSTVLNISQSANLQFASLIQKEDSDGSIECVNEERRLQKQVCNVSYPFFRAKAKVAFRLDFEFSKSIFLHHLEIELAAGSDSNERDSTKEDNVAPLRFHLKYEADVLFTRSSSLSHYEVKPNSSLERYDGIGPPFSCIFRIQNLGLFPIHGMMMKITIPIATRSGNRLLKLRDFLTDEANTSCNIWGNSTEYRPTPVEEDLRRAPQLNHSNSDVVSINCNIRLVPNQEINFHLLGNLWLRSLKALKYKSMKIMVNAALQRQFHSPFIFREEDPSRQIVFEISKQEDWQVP

[10] = target: T2, integrin alpha10 (alpha10beta1, cell-expressed) (human, UniProt O75578); assay: FACS, upper end of range 0.9-2.69 nM over seven cell lines
T2 chain: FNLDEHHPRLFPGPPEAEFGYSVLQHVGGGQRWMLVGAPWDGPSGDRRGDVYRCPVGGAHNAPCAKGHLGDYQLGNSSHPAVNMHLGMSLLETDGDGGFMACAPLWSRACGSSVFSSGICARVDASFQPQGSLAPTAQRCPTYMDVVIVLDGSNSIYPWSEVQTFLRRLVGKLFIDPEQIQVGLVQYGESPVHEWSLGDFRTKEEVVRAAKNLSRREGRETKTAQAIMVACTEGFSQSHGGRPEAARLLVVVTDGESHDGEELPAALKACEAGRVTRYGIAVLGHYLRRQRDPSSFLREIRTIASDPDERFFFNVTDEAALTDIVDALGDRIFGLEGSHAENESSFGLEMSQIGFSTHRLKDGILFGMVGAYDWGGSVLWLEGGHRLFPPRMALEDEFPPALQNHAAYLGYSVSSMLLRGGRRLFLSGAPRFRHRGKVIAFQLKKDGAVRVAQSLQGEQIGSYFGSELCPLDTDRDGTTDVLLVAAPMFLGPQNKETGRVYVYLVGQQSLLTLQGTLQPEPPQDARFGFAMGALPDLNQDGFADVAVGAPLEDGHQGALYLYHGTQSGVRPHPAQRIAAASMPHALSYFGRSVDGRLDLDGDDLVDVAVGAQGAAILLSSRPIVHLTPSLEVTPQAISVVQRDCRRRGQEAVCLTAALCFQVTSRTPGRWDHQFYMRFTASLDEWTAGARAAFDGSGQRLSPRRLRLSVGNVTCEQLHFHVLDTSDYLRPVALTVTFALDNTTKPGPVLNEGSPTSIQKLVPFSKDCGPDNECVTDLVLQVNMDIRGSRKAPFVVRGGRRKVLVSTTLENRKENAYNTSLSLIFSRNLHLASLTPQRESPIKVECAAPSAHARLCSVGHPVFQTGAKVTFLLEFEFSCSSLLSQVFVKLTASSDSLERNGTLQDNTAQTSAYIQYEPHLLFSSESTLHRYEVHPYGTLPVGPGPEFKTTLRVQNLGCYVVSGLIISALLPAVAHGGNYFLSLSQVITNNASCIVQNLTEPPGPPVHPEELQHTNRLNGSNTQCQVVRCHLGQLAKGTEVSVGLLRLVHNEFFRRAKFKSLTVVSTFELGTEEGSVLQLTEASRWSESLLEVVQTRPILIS

[11] = target: T2, integrin alpha10 (alpha10beta1, …); assay: FACS, lower end of range 0.9-2.69 nM over seven cell lines

Molecule: COc1cccc2c1C(=O)c1c(O)c3c(c(O)c1C2=O)CC(O)(C(=O)CO)CC3OC1CC2C(OC3C(OC)OCCN23)C(C)O1 [PNU-159682, 3′-deamino-3″-4′-anhydro-[2″(S)-methoxy-3″(R)-hydroxy-4″-morpholinyl]doxorubicin]
IC50 [1]: 0.027 nM | IC50 [2]: 0.018 nM | IC50 [3]: 1.4 nM | IC50 [4]: 0.981 nM | IC50 [5]: 0.077 nM | IC50 [6]: 0.145 nM | IC50 [7]: 0.023 nM | IC50 [8]: 0.077 nM

B1: Th-Ab15 (antibody, V domains shown)
VH: QVQLVQSGAEVKKPGASVKVSCKTSGYTFTEYYVIWVRQAPGQGLEWLGWIFPGSGRTYYSEKFRGRATITVDKSTSTAYMELSSLRSEDTAVYYCARDNYGSSGKFFAYWGQGTLVTVSS
VL: DVVMTQSPLSLPVTLGQPASISCRSSQSLVHSNGNTYLHWYQQKPGQPPKLLIYKVSNRFSGVPDRFSGSGSGTDFTLKISRVEAEDVGVYYCSQSTHVPYTFGQGTKLEIK
binding result [9]: no binding

B2: Th-Ab14 (antibody, V domains shown)
VH: QVQLVQSGAEVKKPGASVKVSCKTSGYTFTEYYVIWVRQAPGQGLEWLGWIFPGSGRTYYSEKFRGRATITVDKSTSTAYMELSSLRSEDTAVYYCARDNYGSSGKFFAYWGQGTLVTVSS
VL: DVVMTQSPLSLPVTLGQPASISCRSSQSLVHSNGNTYLHWYQQKPGQPPKLLIYKVSNRFSGVPDRFSGSGSGTDFTLKISRVEAEDVGVYFCSQSTHVPYTFGQGTKLEIK
binding result [9]: no binding

B3: Th-Ab12-ADC (antibody, V domains shown)
VH: QVQLVQSGAEVKKPGASVKVSCKTSGYTFTEYYIIWVRQAPGQGLEWLGWIFPGSGRTYYSEKFRGRVTITADKSTSTAYMELSSLRSEDTAVYYCARDNYGSSGKFFAYWGQGTLVTVSS
VL: DVVMTQSPLSLPVTLGQPASISCRSSQSLVHSNGNTYLHWYQQKPGQPPKLLIYKVSNRFSGVPDRFSGSGSGTDFTLKISRVEAEDVGVYYCSQSTHVPYTFGQGTKLEIK
modifications: ADC, conjugated to PNU-159682-type payload; constant regions SEQ21 (heavy) and SEQ20 (light)
binding result [9]: no binding | EC50 [10]: < 2.69 nM | EC50 [11]: > 0.9 nM

B4: Th-Ab12 (antibody, V domains shown)
VH: QVQLVQSGAEVKKPGASVKVSCKTSGYTFTEYYIIWVRQAPGQGLEWLGWIFPGSGRTYYSEKFRGRVTITADKSTSTAYMELSSLRSEDTAVYYCARDNYGSSGKFFAYWGQGTLVTVSS
VL: DVVMTQSPLSLPVTLGQPASISCRSSQSLVHSNGNTYLHWYQQKPGQPPKLLIYKVSNRFSGVPDRFSGSGSGTDFTLKISRVEAEDVGVYYCSQSTHVPYTFGQGTKLEIK
binding result [9]: no binding

Second part, the molecule after the results:

binding result [9]: no binding
B5: Th-Ab9 (antibody, V domains shown)
VH: QVQLVQSGAEVKKPGASVKVSCKTSGYTFTEYYIIWVRQAPGQGLEWLGWIFPGSGRTYYSEKFRGRATITVDKSTSTAYMELSSLRSEDTAVYYCARDNYGSSGKFFAYWGQGTLVTVSS
VL: DVVMTQSPLSLPVTLGQPASISCRSSQSLVHSNGNTYLHWYQQKPGQPPKLLIYKVSNRFSGVPDRFSGSGSGTDFTLKISRVEAEDVGVYYCSQSTHVPYTFGQGTKLEIK

binding result [9]: no binding
B6: Th-Ab11 (antibody, V domains shown)
VH: QVQLVQSGAEVKKPGASVKVSCKTSGYTFTEYYIIWVRQAPGQGLEWLGWIFPGSGRTYYSEKFRGRVTITADKSTSTAYMELSSLRSEDTAVYYCARDNYGSSGKFFAYWGQGTLVTVSS
VL: DVVMTQSPLSLPVTLGQPASISCRSSQSLVHSNGNTYLHWYQQKPGQPPKLLIYKVSNRFSGVPDRFSGSGSGTDFTLKISRVEAEDVGVYFCSQSTHVPYTFGQGTKLEIK
